Reference: ChEMBL document CHEMBL4834464, “Fragment-based Scaffold Hopping: Identification of Potent, Selective, and Highly Soluble Bromo and Extra Terminal Domain (BET) Second Bromodomain (BD2) Inhibitors” (J Med Chem, 2021)
Converted amounts (≈) assume the structure as drawn.

Experiments:
[1] = Distribution coefficient, logD of the compound by chromatography; format: physicochemical; conditions: octanol/water
[2] = Kinetic solubility of compound […] using the charged aerosol detector (CAD) analysis; format: physicochemical; conditions: read-out: Kinetic_solubility
[3] = Permeability of compound by AMP assay; format: ADME; conditions: not told; read-out: permeability
[4] = Solubility of the compound in FaSSIF at pH 6.5 incubated for 16 hrs by HPLC gradient analysis; format: physicochemical; conditions: for solubility at 16 h: FaSSIF, pH 6.5; for solubility: simulated gi fluid, pH 6.5, 16 h
[5] = Solubility of the compound by CLND assay; format: physicochemical
[6] = Solubility of the compound in FaSSIF at pH 6.5 using crystalline form of sample incubated for 16 hrs by HPLC gradient analysis; format: physicochemical
[7] = Intrinsic clearance in Wistar han rat hepatocytes measured per gram of tissue incubated for 60 mins by LC-MS/MS method; format: ADME, cell-based, Hepatocyte; conditions: 1 h
[8] = Intrinsic clearance in human hepatocytes measured per gram of tissue incubated for 120 mins by LC-MS/MS method; format: ADME, cell-based, Hepatocyte; conditions: 2 h
[9] = Intrinsic clearance in dog hepatocytes measured per gram of tissue by LC-MS/MS method; format: ADME, cell-based, Canis lupus familiaris, Hepatocyte

| SMILES | chromatographic logD [1] | solubility kinetic [2] [µg/mL] | Papp [3] [×10⁻⁶ cm/s] | solubility at 16 h [4] [µg/mL] | solubility kinetic [5] [µg/mL] | solubility thermodynamic at 16 h [6] [µg/mL] | CLint [7] [mL/min/g] | CLint [8] [mL/min/g] | CLint [9] [mL/min/g] | solubility [4] [µg/mL] |
| --- | --- | --- | --- | --- | --- | --- | --- | --- | --- | --- |
| CNC(=O)c1cc(C(=O)NC2CC2)c([C@H](C)c2ccccc2)o1 | 3.6 | ≥ 112 | > 0.4 |  |  |  |  |  |  |  |
| CNC(=O)c1cc(C(=O)N[C@H]2CC[C@H](OC)CC2)n([C@@H](CO)c2ccccc2)n1 | 2.7 | ≥ 164 | 3.9 | > 1000 |  |  |  |  |  |  |
| CNC(=O)c1cc(C(=O)NC(C)CO)n([C@@H](C)c2ccccc2)n1 (stereo partly drawn) | 2.8 |  | 12 |  | ≥ 132 |  |  |  |  |  |
| CNC(=O)c1cc(C(=O)N[C@H]2[C@@H]3C[C@@H](O)C[C@@H]32)n([C@@H](C)c2ccccc2)n1 | 3.2 |  | 6.1 |  | ≥ 291 | 101 (≈ 274 µM) |  |  |  |  |
| CNC(=O)c1cc(C(=O)N[C@H]2CC[C@H](O)CC2)c([C@@H](C)c2ccccc2Cl)o1 | 3.1 | ≥ 242 | 7.8 | > 1000 |  |  |  |  |  |  |
| CC[C@@H](c1ccccc1)n1nc(C(=O)NC)cc1C(=O)N[C@H]1[C@@H]2C[C@@H](O)C[C@@H]21 | 3.3 |  | 12 | 56 (≈ 146 µM) |  |  |  |  |  |  |
| CNC(=O)c1cc(C(=O)NC2CC2)n(Cc2ccccc2)n1 | 3.1 | ≥ 155 | > 8 | 285 (≈ 955 µM) |  |  |  |  |  |  |
| CNC(=O)c1cc(C(=O)NC2CC2)cn([C@@H](C)c2ccccc2)c1=O | 3.3 |  |  | 699 (≈ 2060 µM) |  |  |  |  |  |  |
| CNC(=O)c1cc(C(=O)N[C@H]2CC[C@H](O)CC2)n([C@@H](C)c2ccc(C(F)(F)F)cc2)n1 | 3.9 | ≥ 175 | 27 |  |  |  |  |  |  |  |
| CNC(=O)c1cc(C(=O)N[C@H]2CC[C@H](O)CC2)c([C@@H](C)c2ccc(C)cc2)o1 | 3.4 | ≥ 245 | 10.8 | > 1000 |  |  |  |  |  |  |
| CNC(=O)c1cc(C(=O)NC2CC2)cn([C@H](C)c2ccccc2)c1=O | 3.5 |  |  |  |  |  |  |  |  |  |
| CNC(=O)c1cc(C(=O)N[C@H]2CC[C@H](O)CC2)n([C@@H](C)c2cccc(C)c2)n1 | 3.4 | ≥ 180 | 11 |  |  |  |  |  |  |  |
| CNC(=O)c1cc(C(=O)N[C@H]2CC[C@H](O)CC2)c([C@@H](C)c2ccc(Cl)cc2)o1 | 3.5 | ≥ 118 | 15 |  |  |  |  |  |  |  |
| CNC(=O)c1cc(C(=O)N[C@H]2CC[C@H](OC)CC2)c([C@@H](C)c2ccccc2)o1 | 4.1 |  | 30.3 |  | ≥ 192 | 141 (≈ 367 µM) |  |  |  |  |
| CNC(=O)c1cc(C(=O)N[C@H]2[C@@H]3C[C@H](O)C[C@@H]32)n([C@@H](C)c2cccc(Cl)c2)n1 | 3.7 | ≥ 168 | 33.3 | 327 (≈ 812 µM) |  |  | 17.3 | 10.8 | 8.3 |  |
| CNC(=O)c1cc(C(=O)N[C@H]2CC[C@H](O)CC2)n([C@@H](C)c2ccc(Cl)cc2)n1 | 3.7 | ≥ 132 | 18 | 102 (≈ 252 µM) |  |  |  |  |  |  |
| CC[C@@H](c1ccccc1)n1nc(C(=O)NC)cc1C(=O)N[C@H]1CC[C@H](O)CC1 |  | 138 (≈ 359 µM) | 7 | > 1000 |  |  |  |  |  |  |
| CCCNC(=O)c1cc(C(=O)NC)nn1[C@@H](C)c1ccccc1 | 4.4 |  | 56 |  | ≥ 132 |  |  |  |  |  |
| CC[C@@H](c1ccccc1)n1nc(C(=O)NC)cc1C(=O)N[C@H]1[C@@H]2C[C@H](O)C[C@@H]21 | 3.6 |  | 23 |  |  |  |  |  |  |  |

| SMILES | chromatographic logD [1] | solubility kinetic [2] [µg/mL] | Papp [3] [×10⁻⁶ cm/s] | solubility at 16 h [4] [µg/mL] | solubility kinetic [5] [µg/mL] | solubility thermodynamic at 16 h [6] [µg/mL] | CLint [7] [mL/min/g] | CLint [8] [mL/min/g] | CLint [9] [mL/min/g] | solubility [4] [µg/mL] |
| --- | --- | --- | --- | --- | --- | --- | --- | --- | --- | --- |
| CNC(=O)c1cc(C(=O)NC2CCOCC2)n([C@@H](C)c2ccccc2)n1 | 3.6 |  | 27 |  | 31 (≈ 87 µM) |  |  |  |  |  |
| CNC(=O)c1cc(C(=O)N[C@H]2CC[C@H](O)CC2)c([C@@H](C)c2cccc(OC)c2)o1 | 2.9 | ≥ 113 | 4.4 | 868 (≈ 2170 µM) |  |  |  |  |  |  |
| CNC(=O)c1cc(C(=O)N[C@H]2CC[C@H](O)CC2)n([C@@H](C)c2cccc(C(F)(F)F)c2)n1 | 4.1 | 7 (≈ 16 µM) | 28 |  |  |  |  |  |  |  |
| CCCNC(=O)c1cc(C(=O)NC)oc1[C@@H](C)c1ccccc1 | 4.2 |  | 48 |  | ≥ 127 |  |  |  |  |  |
| CNC(=O)c1cc(C(=O)N[C@H]2CC[C@H](O)CC2)n([C@@H](C)c2ccccc2Cl)n1 | 3.9 | ≥ 182 | 10 |  |  |  |  |  |  |  |
| CNC(=O)c1cc(C(=O)NC(C)CO)c([C@@H](C)c2ccccc2)o1 (stereo partly drawn) | 2.7 |  | 5.7 |  | ≥ 121 |  |  |  |  |  |
| CNC(=O)c1cc(C(=O)N[C@H]2CC[C@H](O)CC2)c([C@@H](C)c2cccc(C)c2)o1 | 3.3 | ≥ 172 | 8.5 | > 1000 |  |  |  |  |  |  |
| CCNC(=O)c1cc2c(-c3cc(C(C)(C)O)ccc3Oc3c(C)cc(F)cc3C)cn(C)c(=O)c2[nH]1 [ABBV-744] | 5.1 | 26 (≈ 52.9 µM) | 41.3 |  |  |  |  | 5.1 |  |  |
| CNC(=O)c1cc(C(=O)NC)n([C@@H](C)c2ccccc2)n1 | 3 |  | 28 |  | ≥ 88 |  |  |  |  |  |
| CNC(=O)c1cc(C(=O)NC2CC2)n([C@@H](C)c2ccccc2)n1 | 3.6 | ≥ 165 | > 40 |  | ≥ 165 |  |  |  |  | 939 (≈ 3010 µM) |
| CNC(=O)c1cc(C(=O)NCCO)c([C@@H](C)c2ccccc2)o1 | 2.3 |  | 3.3 |  | ≥ 132 | 925 (≈ 2920 µM) |  |  |  |  |
| CNC(=O)c1cc(C(=O)NC2CC2)c([C@@H](C)c2ccccc2)o1 | 3.6 | ≥ 145 | 50 |  | ≥ 145 |  |  |  |  | 423 (≈ 1350 µM) |
| CNC(=O)c1cc(C(=O)NCCO)n([C@@H](C)c2ccccc2)n1 | 2.4 |  | 5.9 |  | ≥ 139 |  |  |  |  |  |
| CCNC(=O)c1cc(C(=O)NC)nn1[C@@H](C)c1ccccc1 | 3.7 |  | 43.5 |  | ≥ 137 |  |  |  |  |  |
| CCC(=O)c1c[nH]c(C(=O)NC)c1 | 3.1 | 87 (≈ 483 µM) | 20 | 13 (≈ 72.1 µM) |  |  |  |  |  |  |
| CNC(=O)c1cc(C(=O)N[C@H]2CC[C@H](O)CC2)c([C@@H](C)c2cccc(F)c2)o1 | 4.1 | ≥ 63 | 7.3 |  |  |  |  |  |  |  |
| CCNC(=O)c1cc(C(=O)NC)oc1[C@@H](C)c1ccccc1 | 3.5 |  | 42 |  | ≥ 148 | 432 (≈ 1440 µM) |  |  |  |  |
| CNC(=O)c1cc(C(=O)N[C@H]2[C@@H]3C[C@@H](OC)C[C@@H]32)n([C@@H](C)c2ccccc2)n1 | 2.7 |  | 44 |  | ≥ 150 | > 1000 |  |  |  |  |
| CNC(=O)c1cc(C(=O)N[C@H]2CC[C@H](O)CC2)n([C@@H](C)c2cccc(Cl)c2)n1 | 3.7 | ≥ 143 | 23.5 | 196 (≈ 484 µM) |  |  |  |  |  |  |
